This assay has as its system Cell-based STAT3 reporter inhibition, counterscreen. As to the kind of experiment: STAT3 reporter signal reduction – cell-based, counter-screen for STAT1 inhibitor project, dose response (AID 1409). For orientation: The purpose of a counterscreen is to sort out artefacts and off-target activity.

Structures are written as SMILES. The source made the active and inactive calls. No rule for the calls is given here.

What is called IC50 is the concentration at which inhibition is half-maximal. As to `Cc1ccc(C2=Nc3c(ccc4ccccc34)C(c3ccncc3)=NN2)cc1`, the IC50 is > 55.7 µM (inactive). Consider `CCn1c(O)c(/C=N/NC(=O)c2ccncc2)c(=O)n(CC)c1=S`, for which the IC50 is > 55.7 µM (inactive). As to `O=C(CSc1nc2ccccc2c(=O)[nH]1)c1ccc(O)cc1O`, the IC50 was > 55.7 µM (inactive). Take `O=C(c1ccc2c(c1)N(Cc1ccccc1)C(=O)c1ccccc1S2)N1CCCC1`: the IC50 was > 55.7 µM (inactive). The figure for `Cc1ccc(-n2nc(C(=O)O)c3ccccc3c2=O)cc1C` is > 55.7 µM (inactive); for `COc1ccc(CNc2ncnc3cc(Cl)ccc23)cc1OC` it is > 18.6 µM (inactive); for `CC1C(=O)NN=C1C(=O)N/N=C\C(Br)=C\c1ccccc1` (stereo not drawn) it is 23.8 µM (inactive).

For `Cn1c(C(=O)N2CCN(c3ccc([N+](=O)[O-])cc3)CC2)cc2c(=O)[nH]c3ccccc3c21`, the IC50 is 28.7 µM (inactive). With `COCC(C)NC(=O)CCS(=O)(=O)c1nc(-c2ccc(OC)cc2)cc(C(F)(F)F)n1` (stereo not drawn), the IC50 is > 55.7 µM (inactive). Take `CCOC(=O)C(=CNc1cc(C)nn1-c1ccccc1)C(=O)OCC`: the IC50 is > 55.7 µM (inactive). With `CCOC(=O)CCS(=O)(=O)c1nc(-c2ccccc2)cc(C(F)(F)F)n1`, the IC50 is 24.2 µM (inactive). As for `Cn1nnnc1Sc1ncnc2scc(-c3ccc(F)cc3)c12`, the IC50 was 22.6 µM (inactive). In the case of `COc1ccccc1-c1cc(C(F)(F)F)nc(S(=O)(=O)CCCC(=O)Nc2cccnc2Cl)n1`, the IC50 is 34.6 µM (inactive).

Regarding `CS(=O)(=O)c1nc(-c2ccccc2)cc(C(F)(F)F)n1`, the IC50 is 20.8 µM (inactive).

Take `COc1ccccc1-c1cc(C(F)(F)F)nc(S(C)(=O)=O)n1`: the IC50 was 31.8 µM (inactive). For the molecule `COc1ccc(-c2cc(C(F)(F)F)nc(S(=O)(=O)CCCC(=O)Nc3cccc(O)c3)n2)cc1OC`, the IC50 was 31 µM (inactive).

`Cc1ccc(C(=O)Nc2cccc(N(C)S(C)(=O)=O)c2)cc1S(=O)(=O)Nc1ccccc1`: the IC50 was > 55.7 µM (inactive). `Cc1ccc(S(=O)(=O)N2CCN(C(C(=O)Nc3ccc(F)cc3)c3ccccc3)CC2)cc1` (stereo not drawn): the IC50 was > 55.7 µM (inactive).

As to `O=C(c1ccco1)N1CCN(c2ncnc3c2[nH]c2ccc(Br)cc23)CC1`, the IC50 is 25.6 µM (inactive). Regarding `COc1ccc(-c2cc(C(F)(F)F)nc(S(=O)(=O)CCCC(=O)Nc3cc(C)on3)n2)cc1OC`, the IC50 was 24.8 µM (inactive). For the molecule `O=C(c1ccco1)N1CCN(c2ncnc3c2[nH]c2ccccc23)CC1`, the IC50 was > 55.7 µM (inactive). In the case of `CS(=O)(=O)c1nc(-c2ccc(F)cc2)cc(C(F)(F)F)n1`, the IC50 is 23.8 µM (inactive). Take `Cc1cc(NC(=O)CCCS(=O)(=O)c2nc(-c3cccs3)cc(C(F)(F)F)n2)no1`: the IC50 was > 55.7 µM (inactive). `O=C(c1ccc(Cl)cc1)N1CCN(c2ccnc3cc(Cl)ccc23)CC1`: the IC50 is 22 µM (inactive). Turning to `CCOC(=O)N1CCN(C(=O)c2ccc(CSc3ccc(Cl)cc3)cc2)CC1`, the IC50 is 16.5 µM (inactive). Regarding `Cc1cc(=O)n(C(NC(=O)c2ccccc2)C(=O)c2ccccc2)cn1` (stereo not drawn), the IC50 was > 55.7 µM (inactive). For `COc1ccccc1CNc1ncnc2cc(Cl)ccc12`, the IC50 is > 55.7 µM (inactive).

For `CCn1c(=O)c2cc(C(=O)N3CCCC3)sc2c2ccccc21`, the IC50 is > 55.7 µM (inactive). Regarding `CCOC(=O)N1CCN(C(=O)/C=C/c2c(C)nn(-c3ccc(F)cc3)c2Cl)CC1`, the IC50 was 37.1 µM (inactive). On to `C#Cc1ccc([C@H]2C=C(C(=O)OCC=C)O[C@@H](OCC)[C@@H]2CCCO)cc1`, for which the IC50 is > 55.7 µM (inactive). In the case of `CC1(C)Cc2c(ccc3ccccc23)C2=C(C(=O)N3CCCC3)C(=O)C(=O)N21` it was > 55.7 µM (inactive); in that of `CCN(CC)S(=O)(=O)c1ccc(N2CCOCC2)c(NC(=O)c2cc(-c3ccccn3)nc3ccccc23)c1`, 9.73 µM. Turning to `Cc1ccc(-c2csc3ncnc(Sc4nnc(CN5CCCCCC5=O)o4)c23)cc1`, the IC50 is 12.2 µM (inactive). The figure for `O=C(NNC(=O)c1cccc(S(=O)(=O)N2CCc3ccccc32)c1)c1ccccc1` is 15.9 µM (inactive).

Take `CS(=O)(=O)c1nc(-c2ccco2)cc(C(F)(F)F)n1`: the IC50 was 38 µM (inactive). With `CCOc1cc(-c2noc(N)c2C#N)cc(OCC)c1OCC`, the IC50 is > 55.7 µM (inactive). Consider `CN1CCN(Cc2nc3ccccc3c(=O)n2Cc2nc(-c3ccccc3F)cs2)CC1`, for which the IC50 is > 55.7 µM (inactive). Consider `Cc1ccccc1NC(=O)C(=Cc1ccc(C(=O)O)cc1)C(=O)Nc1ccccc1C`, for which the IC50 was > 55.7 µM (inactive). As for `COc1ccc(-n2c(SCc3cccnc3)nc3c(c2=O)SCC3)cc1OC`, the IC50 is > 55.7 µM (inactive). In the case of `CN1CCN(Cc2nc3ccccc3c(=O)n2Cc2nc(-c3cccc([N+](=O)[O-])c3)cs2)CC1` it was > 55.7 µM (inactive); in that of `Cc1ccc2[nH]c3c(N4CCN(Cc5ccccc5)CC4)ncnc3c2c1`, 16.2 µM (inactive); in that of `COc1ccc(CCNc2ncnc3cc(OC)c(OC)cc23)cc1OC`, 14.6 µM (inactive). The figure for `COc1ccc(CCNC(=O)Cn2c(=O)n(-c3ccc(F)cc3)c(=O)c3sccc32)cc1OC` is > 55.7 µM (inactive). The figure for `COC(=O)CCS(=O)(=O)c1nc(-c2ccccc2)cc(C(F)(F)F)n1` is 25.5 µM (inactive).

On to `COc1ccc(-c2cc(C(F)(F)F)nc(S(=O)(=O)CCCC(=O)Nc3cccnc3Cl)n2)cc1OC`, for which the IC50 was 32.6 µM (inactive). Regarding `O=c1cc(CSc2nc3ccccc3c(=O)[nH]2)c2ccc(O)cc2o1`, the IC50 is > 55.7 µM (inactive). For `CCOC(=O)N1CCN(C(=O)c2ccc(-n3c(=S)[nH]c4ccccc4c3=O)cc2)CC1`, the IC50 was > 55.7 µM (inactive). The figure for `COc1ccccc1-c1cc(C(F)(F)F)nc(S(=O)(=O)CCCC(=O)N2CCOCC2)n1` is 30.9 µM (inactive); for `Cc1cccc(/C=C(\c2nc3ccccc3[nH]2)S(=O)(=O)c2ccccc2)c1` it is 20.3 µM (inactive). On to `CCOC(=O)c1c(C)nc2sc3c(=O)n(-c4ccc(OC)cc4)nnc3c2c1-c1ccc(OC)cc1`, for which the IC50 is > 55.7 µM (inactive). Consider `CN1CCN(Cc2nc3ccccc3c(=O)n2Cc2nc(-c3ccc4ccccc4c3)cs2)CC1`, for which the IC50 is 49.2 µM (inactive). Consider `Cc1ccccc1-c1noc(N)c1C#N`, for which the IC50 was > 55.7 µM (inactive).

Turning to `COC(=O)C1=CN(Cc2ccc(OC)c(OC)c2)C=C(C(=O)OC)C1c1cccs1`, the IC50 is > 55.7 µM (inactive).

(Values after PubChem BioAssay AID1409 (The Scripps Research Institute Molecular Screening Center, 2008).)
